From BindingDB's records for patent US10934285 (Novartis, 2021)

Target: T1, Tyrosine-protein phosphatase non-receptor type 11 (Homo sapiens, UniProt Q06124)
T1 sequence (Q06124 whole entry): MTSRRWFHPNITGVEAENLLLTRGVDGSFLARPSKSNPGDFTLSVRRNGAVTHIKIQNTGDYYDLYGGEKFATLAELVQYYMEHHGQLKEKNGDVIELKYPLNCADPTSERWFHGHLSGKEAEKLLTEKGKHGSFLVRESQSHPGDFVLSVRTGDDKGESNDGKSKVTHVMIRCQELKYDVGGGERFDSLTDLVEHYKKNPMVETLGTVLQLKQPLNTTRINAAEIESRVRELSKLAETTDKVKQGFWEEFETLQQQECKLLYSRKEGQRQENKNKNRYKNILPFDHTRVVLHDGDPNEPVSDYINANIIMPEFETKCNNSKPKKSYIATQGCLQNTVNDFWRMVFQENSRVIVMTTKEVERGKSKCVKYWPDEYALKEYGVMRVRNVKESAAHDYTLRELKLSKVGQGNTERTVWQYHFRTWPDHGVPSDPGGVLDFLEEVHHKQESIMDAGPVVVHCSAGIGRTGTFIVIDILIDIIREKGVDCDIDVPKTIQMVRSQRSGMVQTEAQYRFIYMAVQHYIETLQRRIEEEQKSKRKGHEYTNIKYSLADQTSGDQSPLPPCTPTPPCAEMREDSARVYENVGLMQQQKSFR
Test: Inhibition Assay
Procedure: After 30-60 minutes incubation at 25° C., the surrogate substrate DiFMUP (Invitrogen, cat #D6567) was added to the reaction and incubated at 25° C. for 30 minutes. The reaction was then quenched by the addition of 5 μl of a 160 μM solution of bpV(Phen) (Enzo Life Sciences cat #ALX-270-204). The fluorescence signal was monitored using a microplate reader (Envision, Perki-Elmer) using excitation and emission wavelengths of 340 nm and 450 nm, respectively. The inhibitor dose response curves were analyzed using normalized IC50 regression curve fitting with control based normalization.

IC50 [µM]	Compound
5.38	CN(c1cnc(Sc2cccc(NC(=O)c3c(O)nc4n(c3=O)CCCC4)c2Cl)c(N)n1)C1CC(C)(C)NC(C)(C)C1 [US10934285, Example 21]
0.015	CC1(CN)CCN(c2nnc(Sc3cccc(NC(=O)c4c(O)n5c(ccc6ccccc65)nc4=O)c3Cl)c(N)n2)CC1 [US10934285, Example 38]
